Here are results for 8 molecules from patent publication US8067614B2, “N-substituted (benzoimidazol-2-yl)phenylamines, processes for their preparation, their use as a medicament or diagnostic aid, and a medicament comprising them” (Sanofi-Aventis Deutschland GmbH, priority 2003, dated 2011).

Where a name gives a salt, the structure may show the parent alone.

For assay [1], the system named is adrenergic alpha2 receptor. To be noted: Ernsberger et al, Eur. J. Pharmacol. 134, 1, 1987; cited from earlier work.
The next assay concerns imidazoline I1 receptor. To be noted: Ernsberger et al, Eur. J. Pharmacol. 134, 1, 1987; cited from earlier work.
The conditions of assay [2]: mediated by alpha2 and I1 receptors; Ernsberger et al.; cited from earlier work.
For a further assay, the target named is T1, rNHE3 (Rattus norvegicus, UniProt P26433).
T1 construct: expressed in transfected cells; host or cells: LAP1 cells (fibroblasts)
T1 sequence (P26433 29-831): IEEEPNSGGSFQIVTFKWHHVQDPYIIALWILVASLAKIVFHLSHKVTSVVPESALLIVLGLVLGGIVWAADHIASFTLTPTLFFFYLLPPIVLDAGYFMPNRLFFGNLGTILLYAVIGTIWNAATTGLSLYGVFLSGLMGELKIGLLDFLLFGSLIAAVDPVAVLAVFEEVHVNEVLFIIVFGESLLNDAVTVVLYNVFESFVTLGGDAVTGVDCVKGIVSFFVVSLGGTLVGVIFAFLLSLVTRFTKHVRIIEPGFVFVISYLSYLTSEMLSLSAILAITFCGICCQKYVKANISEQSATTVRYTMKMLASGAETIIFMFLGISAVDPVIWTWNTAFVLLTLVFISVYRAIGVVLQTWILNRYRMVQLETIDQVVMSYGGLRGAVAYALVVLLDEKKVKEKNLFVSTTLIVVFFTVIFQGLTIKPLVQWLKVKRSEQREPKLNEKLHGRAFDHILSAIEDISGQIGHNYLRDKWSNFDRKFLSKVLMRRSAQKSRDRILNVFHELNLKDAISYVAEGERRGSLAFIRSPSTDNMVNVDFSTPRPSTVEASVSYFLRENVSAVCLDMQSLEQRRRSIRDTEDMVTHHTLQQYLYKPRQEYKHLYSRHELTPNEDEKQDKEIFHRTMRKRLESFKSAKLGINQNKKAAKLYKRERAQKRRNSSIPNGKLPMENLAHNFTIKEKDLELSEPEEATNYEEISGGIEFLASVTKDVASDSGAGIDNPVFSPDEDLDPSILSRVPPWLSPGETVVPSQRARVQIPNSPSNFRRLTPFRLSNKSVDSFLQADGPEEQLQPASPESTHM
The assay can be described thus: Recovery of intracellular pH after acidification (BCECF fluorescence) in LAP1 fibroblasts. The assay is classed as cell-based. The protocol: In this test, the recovery in the intracellular pH (pHi) after an acidification was ascertained, which is initiated if the NHE3 is capable of functioning, even under bicarbonate-free conditions. For this purpose, the pHi was determined using the pH-sensitive fluorescent dye BCECF (Calbiochem, the precursor BCECF-AM is employed). The cells (fibroblasts, LAP1 cells) were initially loaded with BCECF. The BCECF fluorescence was determined in a “Ratio Fluorescence Spectrometer” (Photon Technology International, South Brunswick, N.J., USA) at excitation wavelengths of 505 and 440 nm and an emission wavelength of 535 nm and converted into the pHi using calibration curves. The cells were incubated in NH4Cl buffer (pH 7.4) (NH4Cl buffer: 115 mM NaCl, 20 mM NH4Cl, 5 mM KCl, 1 mM CaCl2, 1 mM MgSO4, 20 mM Hepes, 5 mM glucose, 1 mg/ml BSA; a pH of 7.4 is adjusted with 1 M NaOH) even during the BCECF loading. The intracellular acidification was induced by adding 975 μl of an NH4Cl-free buffer (see below) to 25 μl aliquots of the cells incubated in NH4Cl buffer. The subsequent rate of pH recovery was recorded for three minutes. To calculate the inhibitory potency of the tested substances, the cells were initially investigated in buffers with which a complete or absolutely no pH recovery took place. For complete pH recovery (100%), the cells were incubated in Na^+-containing buffer (133.8 mM NaCl, 4.7 mM KCl, 1.25 mM CaCl2, 1.25 mM MgCl2, 0.97 mM Na2HPO4, 0.23 mM NaH2PO4, 5 mM Hepes, 5 mM glucose, a pH of 7.0 is adjusted with 1 M NaOH). To determine the 0% value, the cells were incubated in an Na^+-free buffer (133.8 mM choline chloride, 4.7 mM KCl, 1.25 mM CaCl2, 1.25 mM MgCl2, 0.97 mM K2HPO4, 0.23 mM KH2PO4, 5 mM Hepes, 5 mM glucose, a pH of 7.0 is adjusted with 1 M KOH). The substances to be tested were made up in the Na^+-containing buffer. The recovery of the intracellular pH at each test concentration of a substance was expressed as a percentage of the maximum recovery. The IC50 value for the particular substance for the individual NHE subtypes was calculated from the pH recovery percentages using the Sigma-Plot program.

A further assay relates to NHE3. To be noted: M. Donowitz et al., Am. J. Physiol. 276; cited from earlier work.

For the molecule `Clc1cccc(Cl)c1N=C1NCCN1` [Clonidine], the “affinity for the adrenergic alpha2 receptor” value in assay [1] is recorded as “high affinity”. For the same molecule, in the assay on imidazoline I1 receptor, the “affinity for the imidazoline I1 receptor” value was “high affinity”. For the same molecule, the blood pressure-lowering effect result in assay [2] is “strong blood pressure-lowering effect”.
On rNHE3, `CCN(c1nc2ccccc2[nH]1)c1c(Cl)cccc1Cl` [Example 1, (1H-Benzoimidazol-2-yl)(2,6-dichlorophenyl)ethylamine] displayed an IC50 of 0.57 µM.
Same read-out and setting: then `CN(c1nc2ccccc2[nH]1)c1c(Cl)cccc1Cl` [Example 2, (1H-Benzoimidazol-2-yl)(2,6-dichlorophenyl)methylamine hydrochloride], with 0.53 µM; and `CC(C)N(c1nc2ccccc2[nH]1)c1c(Cl)cccc1Cl` [Example 3, (1H-Benzoimidazol-2-yl)(2,6-dichlorophenyl)isopropylamine], with 9.3 µM; and `CN(c1nc2cc(F)ccc2[nH]1)c1c(Cl)cccc1Cl` [Example 4, (2,6-Dichlorophenyl)(5-fluoro-1H-benzoimidazol-2-yl)methylamine], with 3.3 µM.
The same measure, in the same setting: then `C=CCN(c1nc2ccccc2[nH]1)c1c(Cl)cccc1Cl` [Example 5, Allyl(1H-benzoimidazol-2-yl)(2,6-dichlorophenyl)amine], with 1.5 µM.
Turning to `Clc1cccc(Cl)c1N(c1nc2ccccc2[nH]1)C1CCCC1` [Example 6, (1H-Benzoimidazol-2-yl)cyclopentyl(2,6-dichlorophenyl)amine], the IC50 against rNHE3 was 8.3 µM.
Consider `CC(C)[C@@H](CC[C@@H](C)[C@H]1CC[C@H]2[C@@H]3[C@H](O)C[C@H]4C[C@@H](NCCCNCCCCN)CC[C@]4(C)[C@H]3CC[C@]12C)OS(=O)(=O)O` [Squalamine], for which, in the assay on NHE3, the “time to maximum strength of effect as NHE3 inhibitor” value was “only after one hour”.

The IC50 is the point on the concentration scale where inhibition reaches its midpoint. Higher therefore signals a need for much substance.
